According to patent US20200247812A1 (Integral Biosciences Private Limited, priority 2018, published 2020):

Assays:
Assay type in all cases: cell-based
A427 = test: Cell viability assay (resazurin), A427; conditions: Homo sapiens, A-427, 72-144 hr
Description: (§1) Different cell lines such as pancreatic, (MIA PaCa-2; ATCC®CRL-1420™ & and Panc-1; CRL-1469™), liver carcinoma (HepG2; ATCC® HB-8065™), lung epithelial carcinoma (A549; ATCC® CCL-185™) and others were seeded in their respective medium (DMEM, Cat #10569044, MEM, Cat #41090036; RPMI, Cat #22400089; all with 10% FBS, Gibco, ThermoFisher) at a cell count of 3000 cells per 100 μl per well in a 96 well edge plate (167425; ThermoFisher). Cells were allowed to grow at 37° C. for 24 hr in 5% CO2 (culture conditions) in a Nuaire incubator (humidified). Serially diluted compounds (100 μl) were added to the culture plate 24 hr later and the cultures were further incubated in culture conditions for specified time depending on doubling time of specific cell line (ranging from 72-144 hr). Experiment was terminated at the completion of incubation time with the drug by replacing the medium with 100 μl of 1 mM of resazurin (R7017; Sigma) prepared in respective culture medium and the plates were further incubated in culture conditions for 4 hr. Fluorescence was then measured using a multimodal plate reader (Biotek Synergy Neo) at an excitation wavelength of 535 nm and emission wavelength of 590 nm to obtain relative fluorescence units. Data analysis was done by subtracting the background fluorescence (only medium blank) value from each reading and then normalizing with the vehicle control (DMSO treated cells) to obtain percent survival/proliferation. Percent survival at different doses was used to calculate IC50 by fitting the curve to the “four-parameter variable slope logistic model” using Prism Graph Pad.

THP1 = test: Cell viability assay (resazurin), THP1; conditions: Homo sapiens, THP-1, 72-144 hr
Description: as §1

HCT116 = test: Cell viability assay (resazurin), HCT116; conditions: Homo sapiens, HCT-116, 72-144 hr
Description: as §1

A549 = test: Cell viability assay (resazurin), A549; conditions: Homo sapiens, 72-144 hr
Description: as §1

[1] = system: phosphorylation of Smad-2 in THP-1 cells; test: Inhibition of phosphorylation of Smad-2 in THP-1 cells (Phospho-Smad2 ELISA); conditions: 1.5 h, human TGF-β 20 ng/ml, 90 min, read-out: pSmad2 IC50
Description: IC50 values of compounds for determining inhibition of phosphorylation of Smad-2 in THP-1 cells (ATCC, Cat # ATCC® TIB-202™) cultured in RPMI medium, (Cat #22400089; with 10% FBS, Gibco, ThermoFisher). THP-1 cells (1.0×10^6 cells/well; 6 well plate) were incubated with serial dilutions of compounds (3 fold, 5 point dose response starting at 10 μM) for 60 min at 37° C., 5% CO2 in an incubator (cell culture conditions) prior to treating them with Recombinant Human TGF-β (20 ng/ml soluble; Cat #100-21, Peprotech) for 90 min. The cells were then pelleted and processed for protein estimation and evaluation of pSmad using ELISA kit from Cell Signaling (PathScan(R) Phospho-Smad2 (Ser465/467) Sandwich ELISA; Cat #7348C) as per manufacturer's protocol. Data analysis was done by subtracting the background absorbance (only negative control) value from each reading and then normalizing with the vehicle control (DMSO treated cells) to obtain percent levels of pSmad-2. Percent inhibition thus obtained (by subtracting expression levels of pSmad from 100) at different doses was used to calculate IC50 by fitting the curve to the “four-parameter variable slope logistic model” using Prism Graph Pad.

mouse splenocytes = test: Mouse splenocyte viability assay (CD3e/CD28 activated, resazurin); conditions: CD3e/CD28 activated Balb/c splenocytes, 72 hr
Description: IC50 values of compounds for determining viability in CD3e/CD28 activated mouse splenocytes isolated from Balb/c mice cultured in RPMI, Cat #22400089; with 10% FBS, Gibco, ThermoFisher). Mouse splenocytes (2×10^5 cells/well) were activated with Anti-mouse CD3e (2.5 μg/ml, coated overnight at 4° C.; Cat #14-0032-82, eBioscience) and then incubated with serial dilutions of compounds (3 fold, 8 point dose response starting at 30 μM) for 30 min at 37° C., 5% CO2 in an incubator (cell culture conditions) prior to treating them with Anti-mouse CD28 (0.1 μg/ml soluble; Cat #16-0281-82, eBiosciences). Splenocytes were further incubated under cell culture conditions for 72 hr following which experiment was terminated by replacing the medium with 100 μl of 1 mM of resazurin (R7017; Sigma) prepared in respective culture medium and the plates were further incubated in culture conditions for 4 hr. Fluorescence was then measured using a multimodal plate reader (Biotek Synergy Neo) at an excitation wavelength of 535 nm and emission wavelength of 590 nm to obtain relative fluorescence units. Data analysis was done by subtracting the background fluorescence (only medium blank) value from each reading and then normalizing with the average of vehicle control (DMSO treated cells) to obtain percent survival/proliferation. […]

MiaPaCa-2 = test: Cell viability assay (resazurin), MiaPaCa-2; conditions: Homo sapiens, MIA PaCa-2, 72-144 hr
Description: (§2) Different cell lines such as pancreatic, (MIA PaCa-2; ATCC®CRL-1420™ & and Panc-1; CRL-1469™), liver carcinoma (HepG2; ATCC® HB-8065™), lung epithelial carcinoma (A549; ATCC® CCL-185™) and others were seeded in their respective medium (DMEM, Cat #10569044, MEM, Cat #41090036; RPMI, Cat #22400089; all with 10% FBS, Gibco, ThermoFisher) at a cell count of 3000 cells per 100 μl per well in a 96 well edge plate (167425; ThermoFisher). Cells were allowed to grow at 37° C. for 24 hr in 5% CO2 (culture conditions) in a Nuaire incubator (humidified). Serially diluted compounds (100 μl) were added to the culture plate 24 hr later and the cultures were further incubated in culture conditions for specified time depending on doubling time of specific cell line (ranging from 72-144 hr). […] Fluorescence was then measured using a multimodal plate reader (Biotek Synergy Neo) at an excitation wavelength of 535 nm and emission wavelength of 590 nm to obtain relative fluorescence units. Data analysis was done by subtracting the background fluorescence (only medium blank) value from each reading and then normalizing with the vehicle control (DMSO treated cells) to obtain percent survival/proliferation. […]

HT29 = test: Cell viability assay (resazurin), HT29; conditions: Homo sapiens, HT-29, 72-144 hr
Description: as §2

MCF7 = test: Cell viability assay (resazurin), MCF7; conditions: Homo sapiens, 72-144 hr
Description: as §1

MV-4-11 = test: Cell viability assay (resazurin), MV-4-11; conditions: Homo sapiens, MV4-11, 72-144 hr
Description: as §1

Panc-10.05 = test: Cell viability assay (resazurin), Panc-10.05; conditions: Homo sapiens, Panc1005, 72-144 hr
Description: as §1

HepG2 = test: Cell viability assay (resazurin), HepG2; conditions: Homo sapiens, 72-144 hr
Description: as §1

IC50 (THP1) [µM]	IC50 (HCT116) [µM]	IC50 (A549) [µM]	IC50 [1] [µM]	IC50 (MiaPaCa-2) [µM]	IC50 (HT29) [µM]	IC50 (MCF7) [µM]	IC50 (MV-4-11) [µM]	IC50 (Panc-10.05) [µM]	IC50 (HepG2) [µM]	SMILES	IC50 (A427) [µM]	IC50 (mouse splenocytes) [µM]
13.4	1.97	> 30	0.539	> 30	3.82	> 10	0.7	4.72	> 30	CC(C)c1[nH]c(=O)c(-c2cc(Cl)ccc2F)cc1Nc1ccnc2[nH]ccc12 [Compound 1.50, 5-((1H-pyrrolo[2,3-b]pyridin-4-yl)amino)-3-(5-chloro-2-fluorophenyl)-6-isopropylpyridin-2(1H)-one]	3.55	> 30
> 30	> 30	> 30	0.123	> 30	14.7	> 10	19.9	> 30	> 30	CC(=O)Nc1cc(Nc2cc(-c3cc(Cl)ccc3F)c(=O)[nH]c2C(C)C)ccn1 [Compound 1.48, N-(4-((5-(5-chloro-2-fluorophenyl)-2-isopropyl-6-oxo-1,6-dihydropyridin-3-yl)amino)pyridin-2-yl)acetamide]	> 30	> 30
